For assay [1], the system named is HeLa. The experiment in a line: Induction of microtubule polymerization in human HeLa cells assessed as bundle like formation at 0.5 uM after 24 hrs by rhodamine/DAPI staining-based confocal microscopic analysis. Type of assay: cell-based.
Assay [2] is filed under the species Homo sapiens. In words: Induction of microtubule polymerization (unknown origin) at 0.5 uM after 24 hrs by immunoblot. On the technique in general: A western blot detects proteins with antibodies after separation by electrophoresis.
Assay [3] relates to HepG2. In words: Antiproliferative activity against human HepG2 cells after 24 hrs by MTT assay. As to conditions: HepG2, 24 h. It counts as functional, cell-based. (In general: Tetrazolium dyes change colour on reduction, which living cells bring about.)
The subject of assay [4] is MDA-MB-231. In words: Antiproliferative activity against human MDA231 cells after 24 hrs by MTT assay. As to conditions: MDA-MB-231, 24 h. It counts as functional, cell-based.
In assay [5] the test system is HeLa. The experiment in a line: Antiproliferative activity against human HeLa cells after 24 hrs by MTT assay. Type of assay: functional, cell-based.
Assay [6] relates to A549. In words: Antiproliferative activity against human A549 cells after 24 hrs by MTT assay. Type of assay: functional, cell-based. As to conditions: A549, 24 h.
In assay [7] the test system is L02. The experiment in a line: Antiproliferative activity against human LO2 cells after 24 hrs by MTT assay. It counts as cell-based. As to conditions: L02, 24 h.
Assay [8] has as its system HEK-293T. In words: Antiproliferative activity against human 293T cells after 24 hrs by MTT assay. It counts as cell-based.
For assay [9], the system named is HeLa. The experiment in a line: Inhibition of microtubule polymerization in human HeLa cells at 0.5 uM after 24 hrs by rhodamine/DAPI staining-based confocal microscopic analysis. Type of assay: cell-based.
The species named for assay [10] is Homo sapiens. The experiment in a line: Inhibition of microtubule polymerization (unknown origin) at 0.5 uM after 24 hrs by immunoblot.
In assay [11] the target is [Pyruvate dehydrogenase (acetyl-transferring)] kinase isozyme 1, mitochondrial (Homo sapiens) (UniProt Q15118). Particulars: HeLa, 10 mM.
Description: Inhibition of PDK1 in human HeLa cells assessed as increase in PDH-E1 alpha expression at 10 mM by Western blot analysis
The target is the same in assay [12]. Particulars: HeLa, 10 mM. The source holds these as a separate data set.
Description: Inhibition of PDK1 in human HeLa cells assessed as decrease in PDH-E1 alpha p-ser300 expression at 10 mM by Western blot analysis
For assay [13] the target is unchanged. Particulars: HeLa, 10 mM. The source holds these as a separate data set.
Description: Inhibition of PDK1 in human HeLa cells assessed as decrease in PDH-E1 alpha p-ser232 expression at 10 mM by Western blot analysis

Active and inactive are the calls of the source. The calls are words filed in the database; no cut-off is given here.

As for `CC(=O)O[C@H]1C(=O)[C@@]2(C)[C@H]([C@H](OC(=O)c3ccccc3)[C@]3(O)C[C@H](OC(=O)[C@H](O)[C@@H](NC(=O)c4ccccc4)c4ccccc4)C(C)=C1C3(C)C)[C@]1(OC(C)=O)CO[C@@H]1C[C@@H]2O`, the outcome in assay [1] and in assay [2] was Active.
In general, IC50 refers to the concentration that gives 50% inhibition. Take `COc1cc2c(c(OC)c1OC)-c1ccc(OC)c(=O)cc1[C@@H](NC(C)=O)CC2` [COLCHICINE]: the IC50 in assay [3] was found to be 4.65 µM; in [4] it was 3.89 µM; in assay [5] it was 2.54 µM; in assay [6] it was 4.64 µM; in assay [7], 3.01 µM; in assay [8], 6.38 µM. The inhibition result in assay [9] and in [10] was “Active” each time.
Consider `O=C(O)C(Cl)Cl` [DICHLOROACETIC ACID], for which the IC50 in assay [3], in assay [4], in [5], in assay [6], in [7] and in assay [8] was greater than 100 µM throughout. Also, the inhibition result in assay [11], in assay [12] and in assay [13] was “Active” throughout.
Take `CC(C)=CC[C@@H](OC(=O)CCCC[C@@H]1CCSC(c2ccc(C)cc2)S1)C1=CC(=O)c2c(O)ccc(O)c2C1=O` (stereo not given in full): the concentration for half-maximal inhibition (IC50) in assay [3] was determined as 45.7 µM; in assay [4], 11.9 µM; in assay [5] it was 11.5 µM; in assay [6] it was 12.1 µM; in [7] it was 85.6 µM; in [8] it was 88.6 µM.
`CC(C)=CC[C@@H](OC(=O)CCCC[C@@H]1CCSC(c2ccccc2C)S1)C1=CC(=O)c2c(O)ccc(O)c2C1=O` (stereo not given in full): the IC50 turned out to be 24.3 µM in assay [3]; 17.4 µM in assay [4]; 14.9 µM in assay [5]; 10 µM in [6]; 89.8 µM in assay [7]; 102 µM in assay [8].
Consider `CC(C)=CC[C@@H](OC(=O)CCCC[C@@H]1CCSC(c2cccc(Br)c2)S1)C1=CC(=O)c2c(O)ccc(O)c2C1=O` (stereo not given in full), for which the IC50 was 21.9 µM in [3]; 26.8 µM in [4]; 13.3 µM in assay [5]; 22.2 µM in assay [6]; 93 µM in assay [7]; 102 µM in assay [8].
As to `CC(C)=CC[C@@H](OC(=O)CCCC[C@@H]1CCSC(c2cccc(Cl)c2Cl)S1)C1=CC(=O)c2c(O)ccc(O)c2C1=O` (stereo not given in full), the half-maximal inhibitory concentration (IC50) in [3] was 5.08 µM; in [4], 25.8 µM; in assay [5] it was 13.6 µM; in [6] it was 10.7 µM; in [7] it was 119 µM; in [8], 97.8 µM.
As to `CC(C)=CC[C@@H](OC(=O)CCCC[C@@H]1CCSC(c2ccc(C(C)C)cc2)S1)C1=CC(=O)c2c(O)ccc(O)c2C1=O` (stereo not given in full), the IC50 in assay [3] worked out at 25.9 µM; in assay [4] it was 8.97 µM; in [5], 17.5 µM; in assay [6] it was 19.6 µM; in [7], 85.6 µM; in [8], 108 µM.
Take `CC(C)=CC[C@@H](OC(=O)CCCC[C@@H]1CCSC(c2ccccc2Cl)S1)C1=CC(=O)c2c(O)ccc(O)c2C1=O` (stereo not given in full): the half-maximal inhibitory concentration (IC50) in assay [3] came to 11.3 µM; in assay [4], 20.6 µM; in [5] it was 16.5 µM; in [6] it was 16.8 µM; in [7], 95.8 µM; in assay [8], 78 µM.

For the origin of these results see ChEMBL document CHEMBL4251606, “Design and characterization of α-lipoic acyl shikonin ester twin drugs as tubulin and PDK1 dual inhibitors” (Eur J Med Chem, 2018).
